Laboratory results reported in the supplement of paper PMC10307832.

Experiments:
Test in all cases: relative viability (nuclei count vs DMSO), 5 days (fraction); higher = more cells survive
[1] = compound: CC1=CC=C(C=C1)C(=O)CN2C3=C(CCCC3)SC2=N [Pifithrin_alpha] + CC(=O)c1c(C)c2cnc(Nc3ccc(N4CCNCC4)cn3)nc2n(C2CCCC2)c1=O [Palbociclib] (partner 0.5 µM)
Method in brief: (§1)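 Lung cancer cell lines in 1536-well plates got either a single drug or a fixed anchor-drug dose together with five library-drug doses (not always all listed) in √10 steps, by pin tool, on the day after seeding. Nuclei were counted after 5 days, and relative viability is the treated-to-vehicle ratio of nuclei counts. Values are medians of duplicate plates.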

[2] = compound: CC1=CC=C(C=C1)C(=O)CN2C3=C(CCCC3)SC2=N [Pifithrin_alpha] + CS(=O)(=O)N1CCN(Cc2cc3nc(-c4cccc5[nH]ncc45)nc(N4CCOCC4)c3s2)CC1 [Pictilisib] (partner 1 µM)
Method in brief: as §1

[3] = compound: CC1=CC=C(C=C1)C(=O)CN2C3=C(CCCC3)SC2=N [Pifithrin_alpha] + Nc1ncn([C@H]2C[C@H](O)[C@@H](CO)O2)c(=O)n1 [Decitabine] (partner 2 µM)
Method in brief: as §1

[4] = compound: Nc1nc(Nc2ccc3c(c2)CC[C@@H](N2CCCC2)CC3)nn1-c1cc2c(nn1)-c1ccccc1CCC2 [Bemcentinib] + CS(=O)(=O)CCNCc1ccc(-c2ccc3ncnc(Nc4ccc(OCc5cccc(F)c5)c(Cl)c4)c3c2)o1 [Lapatinib] (partner 2 µM)
Method in brief: as §1

NCI-H650
relative viability ([1]; first compound 3.162 µM): 0.371 | relative viability ([1]; first compound 10 µM): 0.328 | relative viability ([1]; first compound 31.62 µM): 0.204 | relative viability ([1]; first compound 100 µM): 0.327 | relative viability ([2]; first compound 3.162 µM): 0.91 | relative viability ([2]; first compound 10 µM): 0.873 | relative viability ([2]; first compound 31.62 µM): 0.58 | relative viability ([2]; first compound 100 µM): 0.763 | relative viability ([3]; first compound 3.162 µM): 0.323 | relative viability ([3]; first compound 10 µM): 0.335 | relative viability ([3]; first compound 31.62 µM): 0.235 | relative viability ([3]; first compound 100 µM): 0.275 | relative viability ([4]; first compound 0.04 µM): 0.885 | relative viability ([4]; first compound 0.1265 µM): 1.02 | relative viability ([4]; first compound 0.4 µM): 0.906 | relative viability ([4]; first compound 1.265 µM): 0.759 | relative viability ([4]; first compound 4 µM): 0.775
